Read-outs that look alike come from different tables or passages of the source.
Tested on: Swiss albino mice
Details: mouse, in vivo; for ALKP / Body weight / Haemoglobin / SGOT / SGPT / Serum creatinine / Serum total cholesterol / Serum triglycerides: po
Description: In view of potent anti-cancer activity of compound 8 in in-vitro model, acute oral toxicity of the same was carried out in Swiss albino mice for its further development into drug product. For the study, 30 mice (15 male and 15 female) were taken and divided into five groups comprising 3 male and 3 female mice in each group weighing between 20-25 g. The animals were maintained at 22±5° C. with humidity control and also on an automatic dark and light cycle of 12 hours. The animals were fed with the standard rat feed and provided ad libitum drinking water. Mice of group 1 were kept as control and animals of groups […] were kept as experimental. The animals were acclimatized for 7 days in the experimental environment prior to the actual experimentation. The test compound was suspended by ultrasonication in cremophore EL (20% in distilled water) using traces of ethanol as a co-solvent and was given at 5, 50, 300 and 1000 mg/kg body weight to animals of groups 2, 3, 4 and 5 respectively. Control animals received only vehicle.
The animals were checked for mortality and any signs of ill health at hourly interval on the day of administration of drug and there after a daily general case side clinical examination was carried out including changes in skin, mucous membrane, eyes, occurrence of secretion and excretion and also responses like lachrymation, pilo-erection respiratory patterns etc. Also changes in gait. posture and response to handling were also recorded (Allan at al., 2007). In addition to observational study, body weights were recorded and blood and serum samples were collected from all the animals on 7th day after experiment and were analysed for total RBC, WBC, differential leucoyte count haemoglobin percentage and biochemical parameters like total cholesterol, triglycerides, creatinine, SGPT and SGOT activity. The animals were then sacrificed and were necropsed for any gross pathological changes. Weights of vital organs like liver, heart, kidney etc. were recorded (Chanda et al., 2009).

## COc1cc(C2/C(=C/c3ccc4c(c3)OCO4)C(=O)c3cc(OC)c(OC)c(OC)c32)cc(OC)c1OC (racemic) [Compound 8, 2-(3,4-Methylenedioxybenzylidine), 3-(3,4,5-trimethoxyphenyl), 4,5,6-trimethoxyindanone]
300 mg/kg
  observational changes, morbidity and mortality: No observational changes, morbidity and mortality
  ALKP: 90.11 ± 5.42 U/L
  Body weight: 29.35 ± 1.63 g
  Haemoglobin: 11.46 ± 0.76 g/dL
  SGOT: 26.55 ± 3.23 U/L
  SGPT: 9.16 ± 1.14 U/L
  Serum creatinine: 0.56 ± 0.07 mg/dL
  Serum total cholesterol: 117.57 ± 3.45 mg/dL
  Serum triglycerides: 113.15 ± 3.65 mg/dL
5 mg/kg
  ALKP: 82.51 ± 3.04 U/L
  Body weight: 30.38 ± 0.77 g
  Haemoglobin: 11.31 ± 1.14 g/dL
  SGOT: 18.74 ± 1.54 U/L
  SGPT: 6.90 ± 0.17 U/L
  Serum creatinine: 0.53 ± 0.04 mg/dL
  Serum total cholesterol: 109.42 ± 5.46 mg/dL
  Serum triglycerides: 112.69 ± 3.75 mg/dL
50 mg/kg
  ALKP: 94.24 ± 8.83 U/L
  Body weight: 28.37 ± 1.42 g
  Haemoglobin: 12.93 ± 0.98 g/dL
  SGOT: 20.66 ± 1.15 U/L
  SGPT: 9.77 ± 0.77 U/L
  Serum creatinine: 0.45 ± 0.05 mg/dL
  Serum total cholesterol: 125.69 ± 5.90 mg/dL
  Serum triglycerides: 90.62 ± 8.41 mg/dL
1000 mg/kg
  Body weight: 30.69 ± 0.83 g
  Haemoglobin: 12.21 ± 1.46 g/dL
  SGOT: 19.38 ± 3.49 U/L
  Serum creatinine: 0.42 ± 0.09 mg/dL
  Serum total cholesterol: 118.60 ± 6.07 mg/dL
  Serum triglycerides: 97.44 ± 6.96 mg/dL

Source: patent publication US8633242B2, “Benzylidene indanones and processes for preparation and use thereof” (Council of Scientific and Industrial Research, priority 2011, dated 2014)
